Source: the NIST ThermoML archive (doi:10.1016/j.jct.2016.12.032)
Numbers after ± are expanded uncertainties.

Settings: 293.15 K; 100 kPa; Liquid; Capillary tube (Ostwald / Ubbelohde) method

Compound | viscosity [mPa·s]
O=C1CCCCCO1 [6-hexanolactone] | 6.63 ± 0.27
CC1CC(=O)O1 (centres undefined) [4-methyl-2-oxetanone] | 1.68 ± 0.07
CC1CCC(=O)O1 (centres undefined) [γ-valerolactone] | 1.99 ± 0.08
O=C1CCCCO1 [1-oxacyclohexan-2-one] | 3.68 ± 0.15

Same assay, conditions: 293.15 K; 100 kPa; Liquid; Frequency=3 MHz; Sing-around technique in a fixed-path interferometer

Compound | speed of sound [m/s]
O=C1CCCCCO1 [6-hexanolactone] | 1567.8 ± 3.4
CC1CC(=O)O1 (centres undefined) [4-methyl-2-oxetanone] | 1371 ± 3
CC1CCC(=O)O1 (centres undefined) [γ-valerolactone] | 1447.3 ± 3.1
O=C1CCCCO1 [1-oxacyclohexan-2-one] | 1587.2 ± 3.4

Same assay, conditions: 293.15 K; 100 kPa; Liquid; Vibrating tube method

Compound | mass density [kg/m3]
O=C1CCCCCO1 [6-hexanolactone] | 1075.92 ± 2
CC1CC(=O)O1 (centres undefined) [4-methyl-2-oxetanone] | 1055.93 ± 2
CC1CCC(=O)O1 (centres undefined) [γ-valerolactone] | 1053.99 ± 2
O=C1CCCCO1 [1-oxacyclohexan-2-one] | 1108.53 ± 2
CCCC[n+]1ccn(C)c1.O=S(=O)([N-]S(=O)(=O)C(F)(F)F)C(F)(F)F | 1441.61 ± 2

Same assay, conditions: 298.15 K; 100 kPa; Liquid; Capillary tube (Ostwald / Ubbelohde) method

Compound | viscosity [mPa·s]
O=C1CCCCCO1 [6-hexanolactone] | 5.76 ± 0.23
CC1CC(=O)O1 (centres undefined) [4-methyl-2-oxetanone] | 1.55 ± 0.06
CC1CCC(=O)O1 (centres undefined) [γ-valerolactone] | 1.82 ± 0.07
O=C1CCCCO1 [1-oxacyclohexan-2-one] | 3.3 ± 0.13

Same assay, conditions: 298.15 K; 100 kPa; Liquid; Frequency=3 MHz; Sing-around technique in a fixed-path interferometer

Compound | speed of sound [m/s]
O=C1CCCCCO1 [6-hexanolactone] | 1548.3 ± 3.3
CC1CC(=O)O1 (centres undefined) [4-methyl-2-oxetanone] | 1352.8 ± 3
CC1CCC(=O)O1 (centres undefined) [γ-valerolactone] | 1429.2 ± 3.1
O=C1CCCCO1 [1-oxacyclohexan-2-one] | 1569.2 ± 3.4

Same assay, conditions: 298.15 K; 100 kPa; Liquid; Vibrating tube method

Compound | mass density [kg/m3]
O=C1CCCCCO1 [6-hexanolactone] | 1071.67 ± 2
CC1CC(=O)O1 (centres undefined) [4-methyl-2-oxetanone] | 1050.68 ± 2
CC1CCC(=O)O1 (centres undefined) [γ-valerolactone] | 1049.28 ± 2
O=C1CCCCO1 [1-oxacyclohexan-2-one] | 1103.96 ± 2
CCCC[n+]1ccn(C)c1.O=S(=O)([N-]S(=O)(=O)C(F)(F)F)C(F)(F)F | 1436.67 ± 2

Same assay, conditions: 303.15 K; 100 kPa; Liquid; Capillary tube (Ostwald / Ubbelohde) method

Compound | viscosity [mPa·s]
O=C1CCCCCO1 [6-hexanolactone] | 5.04 ± 0.2
CC1CC(=O)O1 (centres undefined) [4-methyl-2-oxetanone] | 1.48 ± 0.06
CC1CCC(=O)O1 (centres undefined) [γ-valerolactone] | 1.67 ± 0.07
O=C1CCCCO1 [1-oxacyclohexan-2-one] | 2.98 ± 0.12

Same assay, conditions: 303.15 K; 100 kPa; Liquid; Frequency=3 MHz; Sing-around technique in a fixed-path interferometer

Compound | speed of sound [m/s]
O=C1CCCCCO1 [6-hexanolactone] | 1529 ± 3.3
CC1CC(=O)O1 (centres undefined) [4-methyl-2-oxetanone] | 1334.7 ± 2.9
CC1CCC(=O)O1 (centres undefined) [γ-valerolactone] | 1411.3 ± 3.1
O=C1CCCCO1 [1-oxacyclohexan-2-one] | 1551.3 ± 3.3

Same assay, conditions: 303.15 K; 100 kPa; Liquid; Vibrating tube method

Compound | mass density [kg/m3]
O=C1CCCCCO1 [6-hexanolactone] | 1067.41 ± 2
CC1CC(=O)O1 (centres undefined) [4-methyl-2-oxetanone] | 1045.31 ± 2
CC1CCC(=O)O1 (centres undefined) [γ-valerolactone] | 1044.58 ± 2
O=C1CCCCO1 [1-oxacyclohexan-2-one] | 1099.44 ± 2
CCCC[n+]1ccn(C)c1.O=S(=O)([N-]S(=O)(=O)C(F)(F)F)C(F)(F)F | 1431.58 ± 2

Same assay, conditions: 308.15 K; 100 kPa; Liquid; Capillary tube (Ostwald / Ubbelohde) method

Compound | viscosity [mPa·s]
O=C1CCCCCO1 [6-hexanolactone] | 4.44 ± 0.18
CC1CC(=O)O1 (centres undefined) [4-methyl-2-oxetanone] | 1.4 ± 0.06
CC1CCC(=O)O1 (centres undefined) [γ-valerolactone] | 1.53 ± 0.06
O=C1CCCCO1 [1-oxacyclohexan-2-one] | 2.7 ± 0.11

Same assay, conditions: 308.15 K; 100 kPa; Liquid; Frequency=3 MHz; Sing-around technique in a fixed-path interferometer

Compound | speed of sound [m/s]
O=C1CCCCCO1 [6-hexanolactone] | 1510 ± 3.3
CC1CC(=O)O1 (centres undefined) [4-methyl-2-oxetanone] | 1316.7 ± 2.9
CC1CCC(=O)O1 (centres undefined) [γ-valerolactone] | 1393.5 ± 3
O=C1CCCCO1 [1-oxacyclohexan-2-one] | 1533.5 ± 3.3

Same assay, conditions: 308.15 K; 100 kPa; Liquid; Vibrating tube method

Compound | mass density [kg/m3]
O=C1CCCCCO1 [6-hexanolactone] | 1063.15 ± 2
CC1CC(=O)O1 (centres undefined) [4-methyl-2-oxetanone] | 1039.85 ± 2
CC1CCC(=O)O1 (centres undefined) [γ-valerolactone] | 1039.87 ± 2
O=C1CCCCO1 [1-oxacyclohexan-2-one] | 1094.83 ± 2
CCCC[n+]1ccn(C)c1.O=S(=O)([N-]S(=O)(=O)C(F)(F)F)C(F)(F)F | 1426.62 ± 2

Same assay, conditions: 313.15 K; 100 kPa; Liquid; Capillary tube (Ostwald / Ubbelohde) method

Compound | viscosity [mPa·s]
O=C1CCCCCO1 [6-hexanolactone] | 3.95 ± 0.16
CC1CC(=O)O1 (centres undefined) [4-methyl-2-oxetanone] | 1.33 ± 0.05
CC1CCC(=O)O1 (centres undefined) [γ-valerolactone] | 1.42 ± 0.06
O=C1CCCCO1 [1-oxacyclohexan-2-one] | 2.47 ± 0.1

Same assay, conditions: 313.15 K; 100 kPa; Liquid; Frequency=3 MHz; Sing-around technique in a fixed-path interferometer

Compound | speed of sound [m/s]
O=C1CCCCCO1 [6-hexanolactone] | 1491.2 ± 3.2
CC1CC(=O)O1 (centres undefined) [4-methyl-2-oxetanone] | 1298.8 ± 2.9
CC1CCC(=O)O1 (centres undefined) [γ-valerolactone] | 1375.9 ± 3
O=C1CCCCO1 [1-oxacyclohexan-2-one] | 1516 ± 3.3

Same assay, conditions: 313.15 K; 100 kPa; Liquid; Vibrating tube method

Compound | mass density [kg/m3]
O=C1CCCCCO1 [6-hexanolactone] | 1058.9 ± 2
CC1CC(=O)O1 (centres undefined) [4-methyl-2-oxetanone] | 1034.33 ± 2
CC1CCC(=O)O1 (centres undefined) [γ-valerolactone] | 1035.16 ± 2
O=C1CCCCO1 [1-oxacyclohexan-2-one] | 1090.27 ± 2
CCCC[n+]1ccn(C)c1.O=S(=O)([N-]S(=O)(=O)C(F)(F)F)C(F)(F)F | 1421.58 ± 2

Same assay, conditions: 318.15 K; 100 kPa; Liquid; Capillary tube (Ostwald / Ubbelohde) method

Compound | viscosity [mPa·s]
O=C1CCCCCO1 [6-hexanolactone] | 3.53 ± 0.14
CC1CC(=O)O1 (centres undefined) [4-methyl-2-oxetanone] | 1.25 ± 0.05
CC1CCC(=O)O1 (centres undefined) [γ-valerolactone] | 1.32 ± 0.05
O=C1CCCCO1 [1-oxacyclohexan-2-one] | 2.25 ± 0.09

Same assay, conditions: 318.15 K; 100 kPa; Liquid; Frequency=3 MHz; Sing-around technique in a fixed-path interferometer

Compound | speed of sound [m/s]
O=C1CCCCCO1 [6-hexanolactone] | 1472.7 ± 3.2
CC1CC(=O)O1 (centres undefined) [4-methyl-2-oxetanone] | 1281.1 ± 2.8
CC1CCC(=O)O1 (centres undefined) [γ-valerolactone] | 1358.4 ± 3
O=C1CCCCO1 [1-oxacyclohexan-2-one] | 1498.6 ± 3.2

Same assay, conditions: 318.15 K; 100 kPa; Liquid; Vibrating tube method

Compound | mass density [kg/m3]
O=C1CCCCCO1 [6-hexanolactone] | 1054.65 ± 2
CC1CC(=O)O1 (centres undefined) [4-methyl-2-oxetanone] | 1028.79 ± 2
CC1CCC(=O)O1 (centres undefined) [γ-valerolactone] | 1030.45 ± 2
O=C1CCCCO1 [1-oxacyclohexan-2-one] | 1085.71 ± 2
CCCC[n+]1ccn(C)c1.O=S(=O)([N-]S(=O)(=O)C(F)(F)F)C(F)(F)F | 1416.58 ± 2

Same assay, conditions: 323.15 K; 100 kPa; Liquid; Capillary tube (Ostwald / Ubbelohde) method

Compound | viscosity [mPa·s]
O=C1CCCCCO1 [6-hexanolactone] | 3.17 ± 0.13
CC1CC(=O)O1 (centres undefined) [4-methyl-2-oxetanone] | 1.18 ± 0.05
CC1CCC(=O)O1 (centres undefined) [γ-valerolactone] | 1.23 ± 0.05
O=C1CCCCO1 [1-oxacyclohexan-2-one] | 2.09 ± 0.09

Same assay, conditions: 323.15 K; 100 kPa; Liquid; Frequency=3 MHz; Sing-around technique in a fixed-path interferometer

Compound | speed of sound [m/s]
O=C1CCCCCO1 [6-hexanolactone] | 1454.5 ± 3.1
CC1CC(=O)O1 (centres undefined) [4-methyl-2-oxetanone] | 1263.6 ± 2.8
